Data: patent US8729096B2, “Imidazolidine-2,4-dione derivatives as N-formyl peptide receptor 2 modulators” (Allergan, Inc., priority 2012, dated 2014)

Target: T1, FPR2 (Homo sapiens, UniProt P25090)
T1 construct: expressed in transfected cells
T1 sequence (P25090 1-351): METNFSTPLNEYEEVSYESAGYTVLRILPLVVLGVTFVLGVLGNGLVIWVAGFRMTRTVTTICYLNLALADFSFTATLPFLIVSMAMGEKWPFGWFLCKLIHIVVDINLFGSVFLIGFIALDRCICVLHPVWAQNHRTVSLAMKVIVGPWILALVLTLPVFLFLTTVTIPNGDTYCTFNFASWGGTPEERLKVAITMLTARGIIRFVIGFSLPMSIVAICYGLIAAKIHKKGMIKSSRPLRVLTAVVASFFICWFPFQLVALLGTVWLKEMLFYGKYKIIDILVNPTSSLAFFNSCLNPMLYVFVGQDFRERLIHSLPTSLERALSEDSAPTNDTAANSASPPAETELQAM
Experiment: FLIPR Tetra compound-induced calcium activity in CHO-Ga16 cells stably expressing FPR2
Type: cell-based
Conditions: calcium activity on FLIPR Tetra; for Efficacy (fraction): efficacy given as a fraction; for EC50: tested at 0.61 to 10,000 nM
Protocol: CHO-Ga16 cells stably expressing FPR2 were cultured in (F12, 10% FBS, 1% PSA, 400 μg/ml geneticin and 50 μg/ml hygromycin) and HEK-Gqi5 cells stable expressing FPR2 were cultured in (DMEM high glucose, 10% FBS, 1% PSA, 400 μg/ml geneticin and 50 μg/ml hygromycin). In general, the day before the experiment, 18,000 cells/well were placed in a 384-well clear bottom poly-d-lysine coated plate. The following day the screening compound-induced calcium activity was assayed on the FLIPR^Tetra. The drug plates were prepared in 384-well microplates using the EP3 and the MultiPROBE robotic liquid handling systems. Compounds were tested at concentrations ranging from 0.61 to 10,000 nM. Results are expressed as EC50 (nM) and efficacy values.

Efficacy (fraction) | EC50 [nM] | SMILES
(0.93) | 343 | O=C(CN1C(=O)C2CCCN2C1=O)Nc1ccc(Br)cc1 (stereo not shown) [Compound 2, N-(4-bromophenyl)-2-(1,3-dioxotetrahydro-1H-pyrrolo[1,2-c]imidazol-2(3H)-yl)acetamide]
(1.0) | 243 | O=C(CN1C(=O)C2CCCCN2C1=O)Nc1ccc(Br)cc1 (stereo not shown) [Compound 3, N-(4-bromophenyl)-2-(1,3-dioxohexahydroimidazo[1,5-a]pyridin-2(3H)-yl)acetamide]
(1.00) | 647 | O=C(CN1C(=O)NC2(CCC2)C1=O)Nc1ccc(Br)cc1 [Compound 6, N-(4-Bromophenyl)-2-(6,8-dioxo-5,7-diazaspiro[3.4]octan-7-yl)acetamide]
(1.00) | 306 | COCC1(C)NC(=O)N(CC(=O)Nc2ccc(Br)cc2)C1=O (stereo not shown) [Compound 5]
(0.99) | 56 | CCC1(C(C)C)NC(=O)N(CC(=O)Nc2ccc(Br)cc2)C1=O (stereo not shown) [Compound 1, N-(4-bromophenyl)-2-(4-ethyl-4-isopropyl-2,5-dioxoimidazolidin-1-yl)acetamide]
